Measurements as given in PMC10424183, “Determination of Ligand-Binding Affinity (Kd) Using Transverse Relaxation Rate (R2) in the Ligand-Observed ^1H NMR Experiment and Applications to Fragment-Based Drug Discovery” (Journal of Medicinal Chemistry, 2023).
Read-outs that look alike come from different tables or passages of the source.

What was measured:
CRBN/DDB1 complex [1] = target: T1, CRBN/DDB1 complex (Homo sapiens, UniProt Q96SW2); assay: R2 values of fragment hits at two ligand concentrations (preliminary ranking); format: binding; details: 2 μM CRBN/DDB1 complex; for average R2, compound at 50 μM: 50 μM ligand; for average R2, compound at 200 μM: 200 μM ligand; for average R2, differences: R2 at 50 μM minus R2 at 200 μM
T1 construct: made in house
Procedure: (§1) Here, we present how we used the R2KD assay to triage fragment hits against the CRBN/DDB1 complex. The CRBN/DDB1 complex is part of the E3 ligase system, with its thalidomide-binding domain (TBD) pocket critical for recruiting its substrate protein.[20] […] The R2 values of these fragments were measured at two ligand concentrations (200 and 50 μM) against 2 μM of the CRBN/DDB1 complex. This enabled preliminary ranking of hits. The hits with larger R2 differences rank higher. […] We also determined IC50 of the top 10 fragments using a FP based biochemical assay.[17]
(§2) The T2 relaxation experiment was acquired using pulse program CPMG with 3-9-19 pulse sequence with gradients incorporated to suppress the water signal.[22] Extra water suppression was achieved by adding presaturation during D1. The spin-echo period (delay-180°-delay) was set to 1 msec (d20 is 500 μs), and the relaxation delay (d1) was set to 10 s. The pseudo-2D experiment contained nine slices with spin-echo period repeated the following times: 4, 20, 100, 200, 300, 500, 700, 1000, and 2000.

CRBN/DDB1 complex [2] = target: T1, CRBN/DDB1 complex; assay: R2KD ligand-observed 1H NMR assay (Kd from transverse relaxation rate R2); format: binding
Procedure: (§3) 10 samples were prepared: samples 1–8 containing increasing ligand concentration (maintaining constant protein concentration); sample 9 and 10 containing only ligands at two different concentrations (protein absent). These two samples served as control samples to obtain the R2 values of free ligand. The final percentage of DMSO-d6 in all samples were identical to minimize possible impacts of DMSO-d6.
as §1, §2
Nonlinear regression analysis was carried out using GraphPad Prism 9.2.0. […] Three parameters: P, α, and Kd were in the equation with the initial value set at 1. […] CIs of parameters was calculated at 95% level using Asymmetrical (Profile-likelihood) CI.

CRBN/DDB1 complex [3] = target: T1, CRBN/DDB1 complex; assay: FP based biochemical assay; format: binding; details: top 10 fragments
From the text: To determine the accuracy of Kd measured using the R2KD assay, we tested seven small molecule ligands (Figure 4) against three protein targets (BCL6, CRBN/DDB1 complex, and ERAP1) and compared their Kd values from the R2KD assay with known Ki values (Table 1) obtained in biochemical binding assays[15],[17],[18] or Kd value from the SPR binding assay.[19] We found good agreements between the Kd values and the Ki values, with most of them less than two-fold difference from those determined from biochemical or biophysical assays. […] We found the assay setup to be simple and positive controls unnecessary, making the approach suitable for new and challenging targets.
Here, we present how we used the R2KD assay to triage fragment hits against the CRBN/DDB1 complex. The CRBN/DDB1 complex is part of the E3 ligase system, with its thalidomide-binding domain (TBD) pocket critical for recruiting its substrate protein.[20] A fragment library, composed of around 1000 compounds, was screened using R2 relaxation edited ^1H-NMR experiments, with 19 fragments subsequently identified as competitive hits for the TBD pocket. The R2 values of these fragments were measured at two ligand concentrations (200 and 50 μM) against 2 μM of the CRBN/DDB1 complex. This enabled preliminary ranking of hits. The hits with larger R2 differences rank higher. […] We then measured the Kd values of the top 10 fragments using R2KD assay and confirmed the ranking order (Table 2). We also determined IC50 of the top 10 fragments using a FP based biochemical assay.[17]

CRBN/DDB1 complex [4] = target: T1, CRBN/DDB1 complex; details: known Ki from biochemical binding assay, Δ39CRBN/ΔBPBDDB1 complex; cited from earlier work
BCL6 BTB domain = target: BCL6 BTB domain; design: method as in PMID 35657291; details: known Ki from TR-FRET binding assay; cited from earlier work
BCL6 BTB = target: T2, BCL6 BTB (Homo sapiens, UniProt P41182); assay: R2KD ligand-observed 1H NMR assay (Kd from transverse relaxation rate R2); format: binding
T2 construct: made in house
Procedure: (§4) Four aqueous stock solutions were prepared in Eppendorf Safe-Lock tubes (Cat no. 0030120094) by manual pipetting: (1) ligand aqueous stock solution was prepared by adding 50 mM ligand DMSO-d6 solution to aqueous buffer; (2) dimethyl sulfoxide (DMSO) aqueous stock solution was prepared by adding the same volume of DMSO-d6 as ligand DMSO-d6 solution to aqueous buffer; (3) protein aqueous stock solution was prepared by adding protein solution to aqueous buffer; and (4) aqueous solution was the buffer used in the assay.
as §3, with “Samples were prepared on a Bruker SamplePro-Tube liquid handler by mixing different volume of the four aqueous stocks in 96-well microplates (Greiner 650201) and then transferred to 3 mm NMR tubes (Figure 2). 10 samples” for “10 samples”
The R2 values of four aromatic ^1H-NMR signals (Figure 3B) were experimentally determined (Figure 3C) and (R2,obs – R2F) * LT values were calculated using Excel and used as y-axis values in Prism, while ligand concentrations were plotted as the x-axis values (Figure 3D). All four NMR peaks were used to fit a global Kd with non-linear regression using a customized equation (see Experimental Section), while α values were fitted as an individual parameter for each peak (Figure 3E) as α values differ depending on the individual proton’s environment. While it was possible to fit Kd values using individual NMR peaks and then average the values (Figure 3F), we found using a global fitting algorithm increased robustness of curve fitting and better accommodated outliers in the data. The goodness of fit was judged by 95% confidence interval (CI) (profile likelihood) values and R squared value. The global Kd obtained here is close to the Ki value (54 vs 50 μM) although from our accuracy study, the differences can be larger (see section “Assay Accuracy”).
NMR data were collected at 298 K on a Bruker AVANCE NEO 600 MHz spectrometer, equipped with 5 mm TCI CryoProbe using Bruker Topspin 4.0. The T2 relaxation experiment was acquired using pulse program CPMG with 3-9-19 pulse sequence with gradients incorporated to suppress the water signal.[22] Extra water suppression was achieved by adding presaturation during D1. The spin-echo period (delay-180°-delay) was set to 1 msec (d20 is 500 μs), and the relaxation delay (d1) was set to 10 s. The pseudo-2D experiment contained nine slices with spin-echo period repeated the following times: 4, 20, 100, 200, 300, 500, 700, 1000, and 2000. The T2 relaxation experiment was processed using MestReNova 14.1, and Data Analysis Module of MestReNova was used to obtain integrals of individual ^1H-NMR signals, which were used to calculate R2 with equation I = I0exp (−tR2).
Nonlinear regression analysis was carried out using GraphPad Prism 9.2.0. Equation 12 was defined in user-defined equations as: Y = 0.5α*((X + Kd + P) −sqrt((sqr(X + Kd + P)) – 4*P*X)) where Y was calculated from eq 13 and X is the total ligand concentration. Three parameters: P, α, and Kd were in the equation with the initial value set at 1. In the default constraints setting, P was “constant equal to” the total protein concentration, Kd was “shared value for all data sets”, and α was “must be greater than […]”. CIs of parameters was calculated at 95% level using Asymmetrical (Profile-likelihood) CI.

ERAP1 [5] = target: T3, ERAP1 (Homo sapiens, UniProt Q9NZ08); design: method as in PMID 31841350; details: known Ki from biochemical binding assay; cited from earlier work
T3 construct: made in house

ERAP1 [6] = target: T3, ERAP1; assay: R2KD ligand-observed 1H NMR assay (Kd from transverse relaxation rate R2); format: binding; details: repeated three times (average)
Procedure: as §4
Samples were prepared on a Bruker SamplePro-Tube liquid handler by mixing different volume of the four aqueous stocks in 96-well microplates (Greiner 650201) and then transferred to 3 mm NMR tubes (Figure 2). 10 samples were prepared: samples 1–8 containing increasing ligand concentration (maintaining constant protein concentration); sample 9 and 10 containing only ligands at two different concentrations (protein absent). These two samples served as control samples to obtain the R2 values of free ligand. […]
Nonlinear regression analysis was carried out using GraphPad Prism 9.2.0. Equation 12 was defined in user-defined equations as: Y = 0.5α*((X + Kd + P) −sqrt((sqr(X + Kd + P)) – 4*P*X)) where Y was calculated from eq 13 and X is the total ligand concentration. […] CIs of parameters was calculated at 95% level using Asymmetrical (Profile-likelihood) CI.

[7] = fragment hit triage, top 10 fragments, read-out: R2KD assay Kd
[8] = R2KD assay, repeated three times (average), read-out: Kd

T1 sequence (Q96SW2 40-442 limits assumed, species assumed, one chain of several): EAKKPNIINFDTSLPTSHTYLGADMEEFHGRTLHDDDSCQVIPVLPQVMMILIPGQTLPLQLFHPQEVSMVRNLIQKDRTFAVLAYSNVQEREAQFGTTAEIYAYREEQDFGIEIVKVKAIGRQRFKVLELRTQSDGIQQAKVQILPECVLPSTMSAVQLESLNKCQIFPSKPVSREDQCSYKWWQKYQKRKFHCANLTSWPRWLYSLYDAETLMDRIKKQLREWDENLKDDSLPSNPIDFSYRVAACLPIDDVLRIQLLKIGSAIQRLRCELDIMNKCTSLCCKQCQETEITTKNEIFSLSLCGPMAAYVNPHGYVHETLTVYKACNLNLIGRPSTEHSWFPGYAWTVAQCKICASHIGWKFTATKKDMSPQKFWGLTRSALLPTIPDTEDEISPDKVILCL
T3 sequence (Q9NZ08 whole entry, species assumed): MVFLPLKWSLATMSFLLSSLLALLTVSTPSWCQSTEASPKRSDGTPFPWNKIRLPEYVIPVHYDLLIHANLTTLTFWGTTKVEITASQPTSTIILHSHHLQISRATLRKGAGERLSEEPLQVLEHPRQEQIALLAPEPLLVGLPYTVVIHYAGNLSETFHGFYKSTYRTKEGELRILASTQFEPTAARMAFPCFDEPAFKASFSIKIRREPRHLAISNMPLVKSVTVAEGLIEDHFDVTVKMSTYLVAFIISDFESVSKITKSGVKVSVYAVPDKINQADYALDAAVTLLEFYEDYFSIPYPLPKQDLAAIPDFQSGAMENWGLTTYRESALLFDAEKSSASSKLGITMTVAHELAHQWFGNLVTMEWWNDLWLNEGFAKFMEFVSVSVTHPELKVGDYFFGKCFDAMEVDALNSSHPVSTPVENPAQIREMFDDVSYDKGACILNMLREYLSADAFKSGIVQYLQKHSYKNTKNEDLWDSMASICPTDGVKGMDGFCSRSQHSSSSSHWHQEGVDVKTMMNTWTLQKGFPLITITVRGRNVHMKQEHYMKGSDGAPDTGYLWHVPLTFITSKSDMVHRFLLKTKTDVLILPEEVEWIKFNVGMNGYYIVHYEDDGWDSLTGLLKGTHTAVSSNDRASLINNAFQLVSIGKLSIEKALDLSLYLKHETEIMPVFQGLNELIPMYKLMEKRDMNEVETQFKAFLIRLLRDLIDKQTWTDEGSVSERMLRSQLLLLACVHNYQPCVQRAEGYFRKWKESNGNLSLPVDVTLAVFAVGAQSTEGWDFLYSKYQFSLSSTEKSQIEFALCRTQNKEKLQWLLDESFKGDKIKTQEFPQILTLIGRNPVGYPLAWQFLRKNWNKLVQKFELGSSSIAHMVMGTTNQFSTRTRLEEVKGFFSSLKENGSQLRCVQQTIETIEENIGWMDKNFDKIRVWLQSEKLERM

| Compound | average R2, compound at 50 μM (CRBN/DDB1 complex [1]) | average R2, compound at 200 μM (CRBN/DDB1 complex [1]) | average R2, differences (CRBN/DDB1 complex [1]) | Kd (CRBN/DDB1 complex [2]; [7]) [µM] | IC50 (CRBN/DDB1 complex [3]) [µM] | further results |
| --- | --- | --- | --- | --- | --- | --- |
| COc1ccc(C(=O)N2CCN(c3ccccn3)CC2)cc1 [CCT240246] | 1.5 | 1.3 | 0.2 | – | – | – |
| Nc1ccc(C(=O)NCC2COc3ccccc3O2)cc1 (stereo not shown) [CCT240545] | 2 | 1.5 | 0.5 | 638 | > 3000 | – |
| COC(=O)c1ccc2c(c1)NC(=O)CO2 [CCT240569] | 7.2 | 2.6 | 4.6 | 72 | 153 | Ki (CRBN/DDB1 complex [4]): 140 µM; Kd (CRBN/DDB1 complex [2]; R2KD assay, Δ39CRBN/ΔBPBDDB1 complex, repeated three times (average), read-out: Kd): 88 µM |
| CC(=O)N1CCN(S(=O)(=O)c2ccc(C(C)C)cc2)CC1 [CCT240867] | 1.2 | 1.1 | 0.1 | – | – | – |
| CC(=O)Nc1cc2c(cc1C(=O)C(C)C)OCCO2 [CCT242848] | 3.8 | 2.5 | 1.2 | 532 | > 3000 | – |
| COc1cc2c(cc1OC)C(c1cccc(O)c1)CC(=O)N2 (stereo not shown) [CCT242858] | 2.5 | 2.1 | 0.5 | 1200 | 1370 | – |
| N#CCCCn1c(=O)oc2ccc(Cl)cc21 [CCT242918] | 1.6 | 1.3 | 0.3 | – | – | – |
| Cc1nccc(Nc2cnn(CCO)c2)c1C#N [CCT365133] | – | – | – | – | – | Ki (BCL6 BTB domain): 50 µM; Kd (BCL6 BTB; 5 μM BCL6, average of Peaks 1-4, unit inferred, read-out: Kd, average of individual peak fits): 61 µM; Kd (BCL6 BTB; 5 μM BCL6, individual peak fit, unit inferred, read-out: Kd fitted using individual peak, Peak 1): 55 µM; Kd (BCL6 BTB; 5 μM BCL6, individual peak fit, unit inferred, read-out: Kd fitted using individual peak, Peak 2): 53 µM; Kd (BCL6 BTB; 5 μM BCL6, individual peak fit, unit inferred, read-out: Kd fitted using individual peak, Peak 3): 78 µM; Kd (BCL6 BTB; 5 μM BCL6, individual peak fit, unit inferred, read-out: Kd fitted using individual peak, Peak 4): 56 µM; Kd (BCL6 BTB; 5 μM protein, peak 3, read-out: Kd at 5 μM protein): 70 µM; Kd (BCL6 BTB; 25 μM protein, peak 3, read-out: Kd at 25 μM protein): 58 µM; Kd (BCL6 BTB; 35 μM protein, peak 3, read-out: Kd at 35 μM protein): 71 µM; Kd (BCL6 BTB; [8]): 51 µM; Kd (BCL6 BTB; ligand concentration increasing to 500 μM, no solubility limit, read-out: Kd, data set B): 68 µM; Kd of data set A relative to data set B (BCL6 BTB; limited solubility mimic versus full concentration series): around 10 fold; Kd (BCL6 BTB; simplified graphical presentation, unit inferred, read-out: KD, curve fitting using calculated bound ligand concentration [PL]): 57 µM; Kd (BCL6 BTB; single experiment, 5 μM BCL6, ligand 50-500 μM, four aromatic peaks, global Kd fitting, read-out: Kd, global (shared) fit): 54 µM |
| CC[C@H](O)Cn1c(=O)n(C)c2ccc(Nc3ccnc(Cl)c3C#N)cc21 [CCT367090] | – | – | – | – | – | Ki (BCL6 BTB domain): 4 µM; Kd (BCL6 BTB; [8]): 7 µM |
| O=C(O)c1cccc(S(=O)(=O)Nc2ccccc2N2CCCCC2)c1 [CCT369304] | – | – | – | – | – | Ki (ERAP1 [5]): 33 µM; Kd (ERAP1 [6]): 196 µM |
